For 29 molecules, TGI and GI50 results are on record in PubChem BioAssay (NCI).

Structures are written as SMILES.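 Assay format: 96-well plates, 48-hour exposure. At the GI50, growth is halved. TGI: concentration producing complete growth inhibition.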 Where a SMILES comes first, the peptide text is derived from it. [ ]: non-standard residue; d: D form. Ava = NCCCCC(=O)O; Mpa = O=C(O)CCS

Common to all, as to assay: NCI tumour cell line growth inhibition, 48 h
Assay [1] has as its system EKVX NSCLC.
The subject of assay [2] is HT29 colon.
Assay [3] deals with NCI/ADR-RES ovarian.
Assay [4] deals with OVCAR-8 ovarian.
Assay [5] relates to PC-3 prostate.
The test system of assay [6] is SK-MEL-28 melanoma.
Assay [7] relates to SK-OV-3 ovarian.
The subject of assay [8] is SNB-75 CNS.
Assay [9] has as its system SR leukemia.
The test system of assay [10] is HCC-2998 colon.

With `CC(NC(=O)CCS)C(=O)NC(C)C(=O)NC(Cc1c[nH]c2ccccc12)C(=O)NC(Cc1c[nH]cn1)C(=O)NC(CO)C(=O)NC(Cc1c[nH]c2ccccc12)C(=O)NCCCCC(=O)NC(C)C(=O)NC(CCC(N)=O)C(=O)NC(CCCCN)C(=O)NC(C)C(=O)NC(CCCNC(=N)N)C(=O)NC(CCCCN)C(N)=O` (centres undefined) ([Mpa]AAWHSW[Ava]AQKARK-NH2; configuration not given here), the TGI in [1], in [2], in [3], in assay [4], in [5] and in assay [6] was over 100 µM in each case. The TGI in [7], in assay [8] and in [9] was over 100 µM in each case.
For `O=C1c2c(c3c4cc(F)ccc4oc3c3[nH]c4ccccc4c23)C(=O)N1O`, the GI50 is 6.85 µM in [1]; 2.53 µM in assay [10]; 3.06 µM in assay [2]; 2.9 µM in [3]; 1.82 µM in [4]; 1.35 µM in assay [5]. For the same molecule, the GI50 was 2.89 µM in assay [6], 2.48 µM in assay [7] and 0.0769 µM in assay [8]. Besides, the TGI is 65.8 µM in [1]; over 100 µM in [10]; over 100 µM in assay [2]; over 100 µM in [3]; over 100 µM in assay [4]; over 100 µM in [5]. Also, the results for the TGI in assay [6], in assay [7] and in assay [8] were over 100 µM, 19.6 µM and 4.55 µM, respectively.
`O=C(NC(=S)Nc1ccc(Br)cc1)c1ccc2c(c1)Sc1ccccc1O2`: the TGI in assay [2], in assay [3], in assay [4], in assay [5], in assay [6] and in assay [7] was over 100 µM throughout. Moreover, the TGI was 19.3 µM in assay [8] and over 100 µM in assay [9].
As for `CN(C)CCNC(=O)c1cccc2c1C(=O)c1ccccc1C2=O`, the TGI was over 100 µM in [1]; over 91.6 µM in assay [10]; over 86.6 µM in [2]; 75.5 µM in [3]; 88.3 µM in assay [4]; over 100 µM in assay [6]. The TGI in assay [7] and in [8] was over 100 µM each time.
On to `Nc1nnc(N)n1N`, for which the TGI in [1], in [10], in assay [2], in [6], in assay [7] and in [8] was over 100 µM in each case. For the same molecule, in [9], the TGI is over 100 µM.
Consider `Nc1cc(CO)cc(Nc2c3ccccc3nc3ccccc23)c1`, for which the TGI in assay [1] worked out at 31.8 µM; in assay [2], 28.8 µM; in [3], 35.8 µM; in [4] it was 29.5 µM; in assay [5], 36 µM; in assay [6] it was 32 µM. In addition, the figures for the TGI in [7], in assay [8] and in assay [9] were 29.5 µM, 34.5 µM and over 100 µM, respectively.
On to `Cc1nc2c(Cl)cc(Cl)cc2c2c1CCO2`, for which the TGI in assay [1], in assay [10], in assay [2], in assay [3], in [4] and in assay [6] was over 100 µM each time. For the same molecule, the TGI in assay [8] and in assay [9] was over 100 µM each time.
Turning to `COc1cc(/C=C/c2ccc(OC)c(OC)c2)oc(=O)c1`, the TGI is over 116 µM in assay [1]; over 250 µM in [10]; over 250 µM in assay [2]; over 250 µM in assay [3]; over 11.6 µM in [4]; over 250 µM in assay [6]. Further, the TGI was over 250 µM in assay [7] and over 227 µM in [8].
`COc1ccc(C2=C(OC(C)=O)c3cccn3-c3ccc(Cl)cc3S2)cc1`: the TGI in assay [1], in assay [10], in [2], in assay [4], in [5] and in assay [6] was over 10 µM in each case. In addition, the results for the TGI in assay [7], in assay [8] and in assay [9] were over 10 µM, over 10 µM and 7.3 µM, respectively.
Turning to `CC1=C[P+](c2ccccc2)(c2ccccc2)c2ccccc2O1`, the TGI in assay [1] was over 100 µM; in assay [2], 15.7 µM; in assay [3], over 100 µM; in assay [4] it was over 100 µM; in [5], 17.1 µM; in assay [6], 62.5 µM. Also, the TGI in assay [7] was over 100 µM; in assay [8] it was over 100 µM; in assay [9], 8.28 µM.
Consider `Cc1[nH]c(=O)nc(N/N=C/c2c3ccccc3c(Cl)c3ccccc23)c1C(=O)Nc1ccc(Cl)cc1`, for which the TGI in [10], in assay [2], in assay [4], in [5], in assay [6] and in [8] was over 100 µM each time. The molecule further had a TGI in assay [9] of over 100 µM.
For the molecule `COc1ccc(N2C(=O)C3ON(Cc4ccc(CC(N)=O)cc4)C(c4c5ccccc5c(C)c5ccccc45)C3C2=O)cc1` (centres undefined), the TGI is 54.9 µM in assay [1]; 35 µM in assay [2]; over 100 µM in [3]; over 100 µM in [4]; over 100 µM in [5]; over 100 µM in [6]. The figures for the TGI in assay [7], in assay [8] and in assay [9] were over 100 µM, 38.1 µM and 36.8 µM, respectively.
For the molecule `CCOC(=O)/C(C(N)=O)=C(\O)C(=O)/C=C(\O)c1ccc(Cl)cc1`, the TGI was determined as 58.3 µM in [1]; 41.4 µM in [2]; 45 µM in [3]; 31.7 µM in assay [4]; 38.1 µM in assay [5]; 63.2 µM in [6]. Also, the TGI in assay [7] was over 100 µM; in assay [8] it was 31 µM; in assay [9] it was 44.5 µM.
As to `O=c1c(NCc2ccccc2)c(C2(c3ccccc3F)SCCCS2)c1=O`, the TGI in assay [1], in [2], in assay [3], in assay [4], in [5] and in assay [6] was over 100 µM each time. The TGI in [7] and in assay [8] was over 100 µM throughout.
With `CC(O)C(CO)NC(=O)C1CSSCC(NC(=O)C(N)Cc2ccccc2)C(=O)NC(Cc2ccccc2)C(=O)NC(Cc2c[nH]c3ccccc23)C(=O)NC(CCCCN)C(=O)NC(C(C)O)C(=O)N1` (centres undefined), the TGI in [1], in [2], in assay [3], in assay [4], in [5] and in assay [6] was over 100 µM throughout. For the same molecule, the TGI in assay [8] and in assay [9] was over 100 µM throughout.
Consider `COc1ccc2c(c1)/C(=C\c1c(Cl)nc3n1CCS3)C(=O)N2`, for which the TGI in assay [1] was 77 µM; in assay [10], 8.31 µM; in assay [2], 16.3 µM; in [3] it was 88.3 µM; in [4], over 100 µM; in assay [5], 20 µM. Besides, the TGI in [6] was over 100 µM; in [7], 66.9 µM; in [8], 36.5 µM.
For the molecule `C/C(Cc1ccc2c(c1)OCO2)=N\N=c1\sc2ccccc2n1C`, the TGI in [1], in assay [10], in [2], in [3], in assay [4] and in [5] was over 100 µM each time. Besides, in assay [6], the TGI is over 100 µM.
Consider `Cc1[nH]n(-c2nc(-c3ccccc3)cc(=O)[nH]2)c(=O)c1CCO`, for which the TGI in assay [1], in assay [10], in [2], in assay [3], in [4] and in [5] was over 100 µM throughout. For the same molecule, the TGI in [6] and in [7] was over 100 µM in each case.
Take `O=C1C=C(NCCc2ccc(O)c([N+](=O)[O-])c2)C(=O)c2[nH]cnc21`: the TGI is 72.2 µM in [1]; over 100 µM in assay [10]; over 100 µM in assay [2]; over 100 µM in assay [3]; 68.7 µM in assay [4]; over 100 µM in [5]. Further, in assay [6], the TGI came to 30.4 µM.
Regarding `CC(C)(C)OC(=O)NC(CSCc1ccc(C(=O)c2ccccc2)cc1)C(=O)N1CCN(CCCCN2c3ccccc3Sc3cc(N=[N+]=[N-])ccc32)CC1` (centres undefined), the TGI in assay [1], in assay [10], in assay [2], in assay [3], in [4] and in assay [5] was over 100 µM throughout. For the same molecule, the TGI in assay [6], in [7] and in assay [8] was over 100 µM throughout.
On to `N=c1oc2cc(O)ccc2cc1C(=O)Nc1ccccn1`, for which the TGI in assay [1], in assay [10], in assay [2], in assay [3], in [4] and in assay [5] was over 100 µM each time. Also, the TGI in [6], in assay [7] and in assay [8] was over 100 µM each time.
With `Cc1cn(S(=O)(=O)c2ccccc2)c2c(OCc3ccccc3)cc([N+](=O)[O-])cc12`, the TGI in [1], in assay [10], in assay [2], in [3], in assay [4] and in assay [5] was over 100 µM each time. In addition, the TGI in assay [6], in [7] and in assay [8] was over 100 µM throughout.
With `CC(C)CC1c2[nH]c3ccccc3c2C[C@H]2C(=O)NC(Cc3c[nH]c4ccccc34)C(=O)N12` (some centres undefined), the TGI in [1] came out at 45.4 µM; in [2], 31.2 µM; in assay [3], 56.4 µM; in assay [4] it was 39 µM; in assay [5] it was 41.9 µM; in [6], 40.5 µM. Also, the TGI amounted to 49 µM in assay [7] and 45.5 µM in assay [9].
On to `C(=N\NC1=NCCCCN1)/c1ccc2ccccc2c1`, for which the TGI in assay [1] was over 100 µM; in assay [10] it was 30.3 µM; in [2], 71.9 µM; in [3], over 100 µM; in assay [4], over 100 µM; in assay [5], over 100 µM. Moreover, the TGI was 40.4 µM in assay [6], over 100 µM in [7] and over 100 µM in [8].
Regarding `O=C(COc1cc(=O)oc2ccccc12)c1ccccc1`, the TGI in assay [1] was over 100 µM; in assay [10], over 100 µM; in assay [2], 45.7 µM; in [4] it was 93.8 µM; in assay [6], over 100 µM; in assay [8], over 100 µM. The same molecule yielded a TGI in assay [9] of over 100 µM.
As for `CC1=NNC(=O)C1C1(C(=O)O)CC(c2c[nH]c3ccccc23)=NC(=S)N1` (centres undefined), the TGI in [1] was over 100 µM; in [2] it was 78.9 µM; in [3], over 100 µM; in assay [4], over 100 µM; in assay [5], over 100 µM; in [6], over 100 µM. Moreover, the TGI was over 100 µM in [7] and 62.9 µM in assay [8].
Take `Cc1cc2ncn(CC(=O)O)c2cc1C`: the TGI in [1], in [2], in assay [3], in assay [4], in assay [5] and in [6] was over 100 µM each time. Also, the TGI in [7], in assay [8] and in [9] was over 100 µM each time.
For `COc1ccc(C2CC(c3sc(Nc4ccc(C)cc4)nc3C)=NN2)cc1` (centres undefined), the TGI in assay [1] came out at 47.8 µM; in assay [10], 30.1 µM; in assay [2], 25.6 µM; in [3] it was 32.4 µM; in assay [4] it was 35.9 µM; in [6], 33.6 µM. Besides, the TGI in [7] turned out to be 44.1 µM; in assay [8], 34.1 µM.
As for `COP(=O)(OC)C(N)Cc1c[nH]c2ccccc12` (centres undefined), the TGI in assay [10], in [2], in [3], in [4], in assay [5] and in assay [6] was over 100 µM in each case. In addition, the TGI in assay [7] and in [8] was over 100 µM each time.
